{
  "source": "paper PMC3898417",
  "about": "“A peptide derived from TIMP-3 inhibits multiple angiogenic growth factor receptors and tumour growth and inflammatory arthritis in mice” (Angiogenesis, 2013)",
  "type_in_all_cases": "cell-based, human",
  "key": {"[1]": {"system": "HuDMEC", "assay": "Tube formation assay on Matrigel", "method": "Serum-starved HuDMEC were seeded onto Matrigel™ matrix pre-coated 96 well plates (BD Biosciences, Cowley, Oxford, UK) at a density of 1 × 10^4 cells/well in 100 μl EBM-2 medium. Peptides were then added into each corresponding well and incubated for 1 h at 37 °C, followed by stimulated with growth factors, 0.5 nM VEGF165, 1 nM PDGF-BB or 1.6 nM bFGF, to induce tubule development. The tubules formed were examined 6 h after stimulation under a low power (40×) light microscope. Images were captured and analysed by measuring the average tubule length using ImageJ software (National Institutes of Health, USA)."}, "[2]": {"system": "HuDMEC", "assay": "VEGF165-induced cell migration (Boyden chamber)", "conditions": "0.5 nM VEGF165, 4.5 h, up to 1 μM, n = 4", "method": "The ability of the p700 peptide to inhibit VEGF165-induced EC migration was determined using a multi-well Boyden chamber (Neuro Probe, Gaithersburg, USA). Briefly, serum-starved HuDMEC were treated with p700 for 1 h, washed and plated in the upper chamber in EBM-2 medium containing 1 % FCS on an 8 μm fibronectin pre-coated polycarbonate filter (Neuro Probe, Gaithersburg, USA). The cells were then left to migrate across the filter for 4.5 h at 37 °C with media containing 0.5 nM VEGF165 in the presence and absence of inhibitors in the lower chamber. After the incubation, non-migrating cells on the upper side of the membrane were scraped off and the migrated cells were stained with Hema Gurr® rapid staining kit (Merck Chemicals Ltd, Nottingham, UK). Migrated cells were counted using a light microscope at 160× magnification in three random fields per well of three separate wells."}, "[3]": {"system": "PI3K", "assay": "Immunoblotting of VEGF165-induced PI3K phosphorylation", "conditions": "1 μM, HuDMEC, western blot; n = 3", "method": "(§1) Transfected HUVEC or HuDMEC pre-treated with 1 μM test peptides for 1 h, were stimulated with 0.5 nM of VEGF165 for 2, 5 or 10 min. Cells were lysed and phosphorylated proteins detected by western blotting using phospho-specific antibodies to either VEGFR-2, Erk1/2 or PI3K (New England BioLabs, UK). Band intensities were quantified using Bio-Rad Quantity One Analysis software and normalized using U, un-stimulated control, as 0 %; and VEGF165, positive control, as 100 % of protein phosphorylation."}, "[4]": {"system": "VEGFR-2", "assay": "Immunoblotting of VEGF165-induced VEGFR-2 phosphorylation", "conditions": "1 μM, HuDMEC, western blot; n = 3", "method": "as §1"}},
  "note": "Bridges are numbered along the chain shown (N, C = ends). Where no end group is shown, it is not given here.",
  "data": [
    {"sequence": "KIKSCYYLPCFVTSKN (disulfide 5-10 (inferred)) [p700]", "values": [
      {"measurement": "inhibition of VEGF165-induced HuDMEC tube formation", "setting": "[1]; 1 μM peptide, 0.5 nM VEGF165, 6 h, n = 4", "value": "> 99", "unit": "%"},
      {"measurement": "inhibition of tubule formation in response to VEGF121", "setting": "[1]; 1 μM peptide, VEGF121, n = 4", "value": "> 97", "unit": "%"},
      {"measurement": "inhibition of PDGF-BB-induced tubule formation", "setting": "[1]; HuDMEC, 1 nM PDGF-BB, 6 h, n = 3, Fig. 3b", "value": "inhibited"},
      {"measurement": "inhibition of bFGF-induced tubule formation", "setting": "[1]; HuDMEC, 1.6 nM bFGF, 6 h, n = 3, Fig. 3b", "value": "inhibited"},
      {"measurement": "effect on tubule formation in the absence of VEGF", "setting": "[1]; relative to untreated cells, data not shown", "value": "no effect"},
      {"measurement": "maximum inhibition of VEGF165-induced migration", "setting": "[2]", "value": 67, "unit": "%"},
      {"measurement": "inhibition of VEGF165-induced phosphorylation of PI3K", "setting": "[3]", "value": "approximately 50%"},
      {"measurement": "inhibition of VEGF165-induced VEGFR-2 phosphorylation", "setting": "[4]", "value": "approximately 50%"}
    ]}
  ]
}
